The values that follow come from ChEMBL document CHEMBL3994575, “Helixconstraints and amino acid substitution in GLP-1 increase cAMP and insulin secretion but not beta-arrestin 2 signaling” (Eur J Med Chem, 2017).

Positions of bridges follow the written chain, without caps; N, C: chain ends. Residues, ends and D or L forms follow the SMILES beside them.

Assay [1] deals with T1, Glucagon-like peptide 1 receptor (Homo sapiens, UniProt P43220). Description: Agonist activity at human GLP1R expressed in CHO cells assessed as cAMP accumulation incubated for 30 mins by LANCE assay. Type of assay: functional, cell-based. On the technique in general: Changes in cAMP serve as a functional read-out for many G protein-coupled receptors.
For assay [2], the target named is T1, Glucagon-like peptide 1 receptor. Description: Agonist activity at human GLP1R expressed in CHOK1 cells assessed as induction of beta-galactosidase-tagged beta-arrestin2 recruitment incubated for 90 mins by PathHunter enzyme complementation assay. The assay is classed as cell-based. A general note: Arrestin recruitment assays detect the binding of arrestin to an activated receptor.

The target is the same in assay [3]. Description: Displacement of [125I]-GLP (7 to 36 residues) from human GLP1R expressed in CHO cell membranes incubated for 30 mins measured after 10 hrs by scintillation proximity assay.

T1 sequence (P43220 whole entry): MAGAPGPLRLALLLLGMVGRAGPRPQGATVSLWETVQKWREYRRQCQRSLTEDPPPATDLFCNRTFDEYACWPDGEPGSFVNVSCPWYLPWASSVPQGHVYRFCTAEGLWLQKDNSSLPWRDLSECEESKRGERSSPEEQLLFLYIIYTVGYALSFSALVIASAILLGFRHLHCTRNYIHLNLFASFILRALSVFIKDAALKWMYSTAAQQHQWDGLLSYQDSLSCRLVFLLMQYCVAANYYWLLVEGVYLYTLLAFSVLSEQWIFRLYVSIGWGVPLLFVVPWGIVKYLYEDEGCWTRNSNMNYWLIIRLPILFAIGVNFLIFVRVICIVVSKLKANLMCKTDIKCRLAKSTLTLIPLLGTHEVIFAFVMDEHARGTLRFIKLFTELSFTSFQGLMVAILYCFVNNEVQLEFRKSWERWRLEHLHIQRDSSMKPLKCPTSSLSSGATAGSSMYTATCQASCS

For the molecule `CC[C@H](C)[C@H](NC(=O)[C@H](Cc1ccccc1)NC(=O)[C@H](CCC(=O)O)NC(=O)[C@H](CCCCN)NC(=O)[C@H](C)NC(=O)[C@H](C)NC(=O)[C@H](CCC(N)=O)NC(=O)CNC(=O)[C@H](CCC(=O)O)NC(=O)[C@H](CC(C)C)NC(=O)[C@H](Cc1ccc(O)cc1)NC(=O)[C@H](CO)NC(=O)[C@H](CO)NC(=O)[C@@H](NC(=O)[C@H](CC(=O)O)NC(=O)[C@H](CO)NC(=O)[C@@H](NC(=O)[C@H](Cc1ccccc1)NC(=O)[C@@H](NC(=O)CNC(=O)[C@@H]1CSCC(=O)N[C@@H](Cc2cnc[nH]2)C(=O)N[C@@H](C)C(=O)N1)[C@@H](C)O)[C@@H](C)O)C(C)C)C(=O)N[C@@H](C)C(=O)N[C@@H](Cc1c[nH]c2ccccc12)C(=O)N[C@@H](CC(C)C)C(=O)N[C@H](C(=O)N[C@@H](CCCCN)C(=O)NCC(=O)N[C@@H](CCCNC(=N)N)C(=O)NCC(N)=O)C(C)C`, the EC50 – broadly, the concentration at which the effect is half-maximal – in assay [1] is 300 nM; in assay [2] it was greater than 10000 nM.
Take `CC[C@H](C)[C@H](NC(=O)[C@H](Cc1ccccc1)NC(=O)[C@H](CCC(=O)O)NC(=O)[C@H](CCCCN)NC(=O)[C@H](C)NC(=O)[C@H](C)NC(=O)[C@H](CCC(N)=O)NC(=O)CNC(=O)[C@H](CCC(=O)O)NC(=O)[C@H](CC(C)C)NC(=O)[C@H](Cc1ccc(O)cc1)NC(=O)[C@H](CO)NC(=O)[C@H](CO)NC(=O)[C@@H](NC(=O)[C@H](CC(=O)O)NC(=O)[C@H](CO)NC(=O)[C@@H](NC(=O)[C@H](Cc1ccccc1)NC(=O)[C@@H]1CSC(=O)CN[C@@H](Cc2cnc[nH]2)C(=O)N[C@@H](C)C(=O)N[C@@H](CCC(=O)O)C(=O)NCC(=O)N1)[C@@H](C)O)C(C)C)C(=O)N[C@@H](C)C(=O)N[C@@H](Cc1c[nH]c2ccccc12)C(=O)N[C@@H](CC(C)C)C(=O)N[C@H](C(=O)N[C@@H](CCCCN)C(=O)NCC(=O)N[C@@H](CCCNC(=N)N)C(=O)NCC(N)=O)C(C)C`: the concentration for a half-maximal effect (EC50) in assay [1] and in assay [2] was greater than 10000 nM throughout. Also, the Ki (in general, the dissociation constant of the complex between target and ligand, obtained from inhibition or displacement) in assay [3] was greater than 50 nM.
Take `CC[C@H](C)[C@H](NC(=O)[C@H](Cc1ccccc1)NC(=O)[C@H](CCC(=O)O)NC(=O)[C@H](CCCCN)NC(=O)[C@H](C)NC(=O)[C@H](C)NC(=O)[C@H](CCC(N)=O)NC(=O)CNC(=O)[C@H](CCC(=O)O)NC(=O)[C@@H]1CC(=O)NCCCC[C@H](NC(=O)[C@H](CC(=O)O)NC(=O)[C@H](CO)NC(=O)[C@@H](NC(=O)[C@H](Cc2ccccc2)NC(=O)[C@@H](NC(=O)CNC(=O)[C@H](CCC(=O)O)NC(=O)[C@H](C)NC(=O)[C@@H](N)Cc2cnc[nH]2)[C@@H](C)O)[C@@H](C)O)C(=O)N[C@@H](CO)C(=O)N[C@@H](CO)C(=O)N[C@@H](Cc2ccc(O)cc2)C(=O)N1)C(=O)N[C@H]1CCCCNC(=O)C[C@@H](C(=O)NCC(=O)N[C@@H](CCCNC(=N)N)C(=O)NCC(N)=O)NC(=O)[C@H](C(C)C)NC(=O)[C@H](CC(C)C)NC(=O)[C@H](Cc2c[nH]c3ccccc23)NC1=O` (H-HAEGTFTSDKSSYDEGQAAKEFIKWLVDGRG-NH2; lactam 10-14, 24-28): the figures for the EC50 in assay [1] and in assay [2] were 0.021 nM and 12 nM, respectively. This molecule gave a Ki in assay [3] of 1.4 nM.
Regarding `CC[C@H](C)[C@H](NC(=O)[C@H](Cc1ccccc1)NC(=O)[C@H](CCC(=O)O)NC(=O)[C@H](CCCCN)NC(=O)[C@H](C)NC(=O)[C@H](C)NC(=O)[C@H](CCC(N)=O)NC(=O)[C@@H]1CC(=O)NCCCC[C@H](NC(=O)[C@H](CO)NC(=O)[C@@H](NC(=O)[C@H](CC(=O)O)NC(=O)[C@H](CO)NC(=O)[C@@H](NC(=O)[C@H](Cc2ccccc2)NC(=O)[C@@H](NC(=O)CNC(=O)[C@H](CCC(=O)O)NC(=O)[C@H](C)NC(=O)[C@@H](N)Cc2cnc[nH]2)[C@@H](C)O)[C@@H](C)O)C(C)C)C(=O)N[C@@H](Cc2ccc(O)cc2)C(=O)N[C@@H](CC(C)C)C(=O)N[C@@H](CCC(=O)O)C(=O)N1)C(=O)N[C@H]1CCCCNC(=O)C[C@@H](C(=O)NCC(=O)N[C@@H](CCCNC(=N)N)C(=O)NCC(N)=O)NC(=O)[C@H](C(C)C)NC(=O)[C@H](CC(C)C)NC(=O)[C@H](Cc2c[nH]c3ccccc23)NC1=O` (H-HAEGTFTSDVSKYLEDQAAKEFIKWLVDGRG-NH2; lactam 12-16, 24-28), the 50% effective concentration (EC50) in assay [1] was found to be 0.013 nM; in assay [2] it was 6.7 nM. In addition, in assay [3], the Ki was found to be 0.94 nM.
For the molecule `CC[C@H](C)[C@H](NC(=O)[C@H](Cc1ccccc1)NC(=O)[C@H](CCC(=O)O)NC(=O)[C@H](CCCCN)NC(=O)[C@H](C)NC(=O)[C@H](C)NC(=O)[C@H](CCC(N)=O)NC(=O)[C@@H]1CCC(=O)NCCCC[C@H](NC(=O)[C@H](CO)NC(=O)[C@@H](NC(=O)[C@H](CC(=O)O)NC(=O)[C@H](CO)NC(=O)[C@@H](NC(=O)[C@H](Cc2ccccc2)NC(=O)[C@@H](NC(=O)CNC(=O)[C@H](CCC(=O)O)NC(=O)[C@H](C)NC(=O)[C@@H](N)Cc2cnc[nH]2)[C@@H](C)O)[C@@H](C)O)C(C)C)C(=O)N[C@@H](Cc2ccc(O)cc2)C(=O)N[C@@H](CC(C)C)C(=O)N[C@@H](CCC(=O)O)C(=O)N1)C(=O)N[C@H]1CCCCNC(=O)C[C@@H](C(=O)NCC(=O)N[C@@H](CCCNC(=N)N)C(=O)NCC(N)=O)NC(=O)[C@H](C(C)C)NC(=O)[C@H](CC(C)C)NC(=O)[C@H](Cc2c[nH]c3ccccc23)NC1=O` (H-HAEGTFTSDVSKYLEEQAAKEFIKWLVDGRG-NH2; lactam 12-16, 24-28), the EC50 in assay [1] turned out to be 0.05 nM.
Take `CC[C@H](C)[C@H](NC(=O)[C@H](Cc1ccccc1)NC(=O)[C@H](CCC(=O)O)NC(=O)[C@H](CCCCN)NC(=O)[C@H](C)NC(=O)[C@H](C)NC(=O)[C@H](CCC(N)=O)NC(=O)[C@H](C)NC(=O)[C@H](CCC(=O)O)NC(=O)[C@H](CC(C)C)NC(=O)[C@H](Cc1ccc(O)cc1)NC(=O)[C@H](CO)NC(=O)[C@H](CO)NC(=O)[C@@H](NC(=O)[C@H](CC(=O)O)NC(=O)[C@H](CO)NC(=O)[C@@H](NC(=O)[C@H](Cc1ccccc1)NC(=O)[C@@H](NC(=O)CNC(=O)[C@H](CCC(=O)O)NC(=O)[C@H](C)NC(=O)[C@@H](N)Cc1cnc[nH]1)[C@@H](C)O)[C@@H](C)O)C(C)C)C(=O)N[C@H]1CCCCNC(=O)C[C@@H](C(=O)NCC(=O)N[C@@H](CCCNC(=N)N)C(=O)NCC(N)=O)NC(=O)[C@H](C(C)C)NC(=O)[C@H](CC(C)C)NC(=O)[C@H](Cc2c[nH]c3ccccc23)NC1=O` (H-HAEGTFTSDVSSYLEAQAAKEFIKWLVDGRG-NH2; lactam 24-28): the results for the half-maximal effective concentration (EC50) in assay [1] and in assay [2] were 0.02 nM and 11 nM, respectively. The molecule also came in with a Ki in assay [3] of 1.7 nM.
For `CC[C@H](C)[C@H](NC(=O)[C@H](Cc1ccccc1)NC(=O)[C@H](CCC(=O)O)NC(=O)[C@H](CCCCN)NC(=O)[C@H](C)NC(=O)[C@H](C)NC(=O)[C@H](CCC(N)=O)NC(=O)[C@@H]1CCCN1C(=O)[C@H](CCC(=O)O)NC(=O)[C@H](CC(C)C)NC(=O)[C@H](Cc1ccc(O)cc1)NC(=O)[C@H](CO)NC(=O)[C@H](CO)NC(=O)[C@@H](NC(=O)[C@H](CC(=O)O)NC(=O)[C@H](CO)NC(=O)[C@@H](NC(=O)[C@H](Cc1ccccc1)NC(=O)[C@@H](NC(=O)CNC(=O)[C@H](CCC(=O)O)NC(=O)[C@H](C)NC(=O)[C@@H](N)Cc1cnc[nH]1)[C@@H](C)O)[C@@H](C)O)C(C)C)C(=O)N[C@H]1CCCCNC(=O)C[C@@H](C(=O)NCC(=O)N[C@@H](CCCNC(=N)N)C(=O)NCC(N)=O)NC(=O)[C@H](C(C)C)NC(=O)[C@H](CC(C)C)NC(=O)[C@H](Cc2c[nH]c3ccccc23)NC1=O` (H-HAEGTFTSDVSSYLEPQAAKEFIKWLVDGRG-NH2; lactam 24-28), the 50% effective concentration (EC50) in assay [1] was 0.35 nM; in assay [2], 33 nM. In assay [3], this molecule displayed a Ki of 18 nM.
Consider `CC[C@H](C)[C@H](NC(=O)[C@H](Cc1ccccc1)NC(=O)[C@H](CCC(=O)O)NC(=O)[C@H](CCCCN)NC(=O)[C@H](C)NC(=O)[C@H](C)NC(=O)[C@H](CCC(N)=O)NC(=O)[C@@H](NC(=O)[C@H](CCC(=O)O)NC(=O)[C@H](CC(C)C)NC(=O)[C@H](Cc1ccc(O)cc1)NC(=O)[C@H](CO)NC(=O)[C@H](CO)NC(=O)[C@@H](NC(=O)[C@H](CC(=O)O)NC(=O)[C@H](CO)NC(=O)[C@@H](NC(=O)[C@H](Cc1ccccc1)NC(=O)[C@@H](NC(=O)CNC(=O)[C@H](CCC(=O)O)NC(=O)[C@H](C)NC(=O)[C@@H](N)Cc1cnc[nH]1)[C@@H](C)O)[C@@H](C)O)C(C)C)C(C)C)C(=O)N[C@H]1CCCCNC(=O)C[C@@H](C(=O)NCC(=O)N[C@@H](CCCNC(=N)N)C(=O)NCC(N)=O)NC(=O)[C@H](C(C)C)NC(=O)[C@H](CC(C)C)NC(=O)[C@H](Cc2c[nH]c3ccccc23)NC1=O` (H-HAEGTFTSDVSSYLEVQAAKEFIKWLVDGRG-NH2; lactam 24-28), for which the results for the half-maximal effective concentration (EC50) in assay [1] and in assay [2] were 0.1 nM and 9 nM, respectively. This molecule also registered a Ki in assay [3] of 1.5 nM.
The corresponding values for `CC[C@H](C)[C@H](NC(=O)[C@H](Cc1ccccc1)NC(=O)[C@H](CCC(=O)O)NC(=O)[C@H](CCCCN)NC(=O)[C@H](C)NC(=O)[C@H](C)NC(=O)[C@H](CCC(N)=O)NC(=O)[C@@H]1CCC(=O)NCCCC[C@H](NC(=O)[C@H](CO)NC(=O)[C@H](Cc2ccc(O)cc2)NC(=O)[C@H](CC(=O)O)NC(=O)[C@H](CO)NC(=O)[C@@H](NC(=O)[C@H](Cc2ccccc2)NC(=O)[C@@H](NC(=O)CNC(=O)[C@H](CCC(=O)O)NC(=O)[C@H](C)NC(=O)[C@@H](N)Cc2cnc[nH]2)[C@@H](C)O)[C@@H](C)O)C(=O)N[C@@H](Cc2ccc(O)cc2)C(=O)N[C@@H](CC(C)C)C(=O)N[C@@H](CCC(=O)O)C(=O)N1)C(=O)N[C@H]1CCCCNC(=O)C[C@@H](C(=O)NCC(=O)N[C@@H](CCCNC(=N)N)C(=O)NCC(N)=O)NC(=O)[C@H](C(C)C)NC(=O)[C@H](CC(C)C)NC(=O)[C@H](Cc2c[nH]c3ccccc23)NC1=O` (H-HAEGTFTSDYSKYLEEQAAKEFIKWLVDGRG-NH2; lactam 12-16, 24-28) are 0.009 nM, 8.8 nM and 0.82 nM.
